Assays:
[1] = system: Streptomyces ravidus NRRL 11,300; assay: Streptomycin resistance of the producing organism; details: 10 μg streptomycin per ml
colon 38 tumor = assay: Colon 38 tumor weight in mice; type: in vivo; details: dose level 25 mg/kg; evaluated on 20th day of implantation in mice
Procedure: (j) Ravidomycin causes 50% reduction in colon 38 tumor weight at dose level of 25 mg/kg. evaluated on 20th day of implantation in mice.

[2] = Solubility in organic solvents
[3] = Acute intraperitoneal LD50 in mice; details: mouse, in vivo, ip, LD50, acute, per body weight
mice = assay: Acute intraperitoneal LD50 in mice; details: acute, i.p., per body weight

Row | SMILES | resistance of Streptomyces ravidus to streptomycin [1] | resistance of Streptomyces ravidus to streptomycin ([1]; listed as Streptomycin) | reduction in colon 38 tumor weight (colon 38 tumor) [%] | solubility ([2]; in acetone, methanol, ethanol, chloroform) | solubility ([2]; in diethyl ether) | LD50 [3] [mg/kg] | LD50 (mice) | LD50 (mice; listed as Ravidomycin) [mg/kg]
1 | [H]/N=C(/N)N[C@H]1[C@H](O)[C@@H](O)[C@H](O[C@@H]2O[C@@H](C)[C@](O)(C=O)[C@H]2O[C@@H]2O[C@@H](CO)[C@H](O)[C@@H](O)[C@@H]2NC)[C@@H](N/C(N)=N\[H])[C@@H]1O [streptomycin] | resistant | Resistant | – | – | – | – | – | –
2 | C=Cc1cc(OC)c2c(c1)c(=O)oc1c2cc(OC)c2c(O)ccc(C3OC(C)C(OC(C)=O)C(N(C)C)C3O)c21 (centres unmarked) [ravidomycin] | – | – | 50 | soluble | sparingly soluble | > 400 | greater than 400 mg/kg | 400

From US4230692A, “Ravidomycin and process of preparation” (Ayerst McKenna & Harrison, Inc., priority 1978, dated 1980)
